How the values were obtained:
Type in all cases: in vivo, Brassica napus
BN02 (wild-type) = assay: Foliar spray response of whole plants, FIG. 2; conditions: 210 g ai/ha + 0.5% v/v Merge, 3-4 leaf stage, three weeks after treatment, line BN02
Description: (§1) In addition, B. napus plants (3-4 leaf stage) containing the double mutant were analyzed for response to treatment with imazamox compared to wild type plants. Lines BN02 (wild-type) and BnCL131A1 (AHAS III A122T:S653N, double mutant) were treated with either 210 g ai/ha imazamox supplemented with 0.5% v/v Merge by foliar spray or left unsprayed as checks. FIG. 2 provides the results for plants BN02 (top row) and BnCL131A1 (bottom row).

[1] = tested on: BnCL131A1 (AHAS III A122T:S653N, double mutant); assay: Foliar spray response of whole plants, FIG. 2; conditions: 210 g ai/ha + 0.5% v/v Merge, 3-4 leaf stage, three weeks after treatment, line BnCL131A1
Description: as §1

BN-02 (wild type) = assay: Plant injury after herbicide spray, Table 3; conditions: 3-4 leaf stage, 2 weeks after treatment, line BN-02
Description: (§2) B. napus plants containing the double mutant were also tested for plant injury due to imidazolinone herbicide application. B. napus plants for lines BN02 (wild type), BnCL131A1 (AHAS III A122T:S653N double mutant), BnCL120C7 (AHAS III A122T single mutant), BnCL97 (AHAS III S653N single mutant), PM1/PM2 (commercial two gene check), PM1 (AHAS I S653N single mutant) and PM2 (AHAS III W574L single mutant) were grown from seed until 3-4 leaf stage then either left unsprayed or sprayed with 35, 70 or 210 g ai/ha imazamox supplemented with 0.5% v/v Merge. Herbicide injury was evaluated 2 weeks after treatment (DAT) on 8-24 plants per line using a 0 to 9 scale where 0 is no injury and 9 is plant death. The results are presented as mean injury±one standard error of the mean in Table 3 below. The results presented cover two independent plantings and sprays for all lines except BnCL97. The table also presents values for ±one standard error of the mean.

[2] = tested on: BnCL120C7 (AHAS III A122T single mutant); assay: Plant injury after herbicide spray, Table 3; conditions: 3-4 leaf stage, 2 weeks after treatment, line BnCL120C7
Description: as §2

[3] = tested on: BnCL131A1 (AHAS III A122T:S653N double mutant); assay: Plant injury after herbicide spray, Table 3; conditions: 3-4 leaf stage, 2 weeks after treatment, line BnCL131A1
Description: as §2

[4] = tested on: BnCL97 (AHAS III S653N single mutant); assay: Plant injury after herbicide spray, Table 3; conditions: 3-4 leaf stage, 2 weeks after treatment, line BnCL97
Description: as §2

[5] = tested on: PM1 (AHAS I S653N single mutant); assay: Plant injury after herbicide spray, Table 3; conditions: 3-4 leaf stage, 2 weeks after treatment, line PM1
Description: as §2

[6] = tested on: PM1/PM2 (commercial two gene check); assay: Plant injury after herbicide spray, Table 3; conditions: 3-4 leaf stage, 2 weeks after treatment, line PM1/PM2
Description: as §2

[7] = tested on: PM2 (AHAS III W574L single mutant); assay: Plant injury after herbicide spray, Table 3; conditions: 3-4 leaf stage, 2 weeks after treatment, line PM2
Description: as §2

[8] = tested on: PM1 (AHASL1C-PM1), S653N (Ho); assay: Field trial crop phytotoxicity, Simcoe; conditions: 18 Days After Treatment, line PM1 (AHASL1C-PM1); for Mean Percent Crop Phytotoxicity (% Crop Injury): field, 2-4 leaf stage
Excerpt: Hand-crossed hybrids were produced in the greenhouse between two IMI-tolerant spring Brassica napus parental lines: “BnCL131A1” (homozygous for the A genome IMI-tolerant mutation AHASL1A-A122(At)T-S653(At)N) and “PM1PM2” (homozygous for the A genome AHAS-inhibitor tolerant mutation AHASL1A-W574(At)L (PM2) plus the C genome AHAS-inhibitor tolerant mutation AHASL1C-S653(At)N(PM1)). The resulting heterozygous hand-crossed hybrid line, “PM1PM2/BnCL131A 1” (heterozygous for the stacked mutations: AHASL1A-A122(At)T-S653(At)N, AHASL1A-W574(At)L (PM2), AHASL1C-S653(At)N(PM1)) was field tested together with lines each containing only one AHAS-inhibitor tolerant mutation (homozygous or heterozygous) and several spring Brassica napus checks.
The three repetition trial was conducted in Simcoe, N. Dak., and used a randomized split block design. The trial was designed to measure the percent phytotoxicity (% crop injury) of the different entries under 5 different imidazolinone herbicide treatment rates. Plants were sprayed at the 2-4 leaf stage at a volume of 100 liters/ha. The imidazolinone herbicide rates used were as follows (Imazamox=BEYOND™ 120 g/I LC (BAS 72001H); NIS=INDUCE™ 90 (90% non-ionic surfactant; Helena Chemical Co., Collierville, Tenn.):
Crop Injury Ratings were determined in the field by assessing each plot in the trial for the level of phytotoxicity (percent crop injury) on a scale from 0-100% at 18 days after treatment. Mean values for each entry across the three replications along with their statistical significance (ANOVA) are presented in Table 6 (Ho=homozygous; He=heterozygous). Each value presented in Table 6 is the mean of three replications.
The percent phytotoxicity (% crop injury) ratings were transposed into Herbicide Tolerance ratings by subtracting the percent crop injury rating (Table 6) for each line from 100% to obtain the percent herbicide tolerance (Table 7) (Ho=homozygous; He=heterozygous).

Structure (SMILES): COCc1cnc(C2=NC(C)(C(C)C)C(=O)N2)c(C(=O)O)c1 (centres unmarked) [imazamox]
- response to treatment with imazamox (tolerance) (BN02 (wild-type)): nearly non-tolerant
- response to treatment with imazamox (tolerance) [1]: almost completely tolerant
- Herbicide injury, mean ± one standard error of the mean, 0 to 9 scale (0 no injury, 9 plant death) (BN-02 (wild type); 35 g ai/ha + 0.5% v/v Merge): 9.00 ± 0.00
- Herbicide injury, mean ± one standard error of the mean, 0 to 9 scale (0 no injury, 9 plant death) (BN-02 (wild type); 70 g ai/ha + 0.5% v/v Merge): 9.00 ± 0.00
- Herbicide injury, mean ± one standard error of the mean, 0 to 9 scale (0 no injury, 9 plant death) (BN-02 (wild type); 210 g ai/ha + 0.5% v/v Merge): 9.00 ± 0.00
- Herbicide injury, mean ± one standard error of the mean, 0 to 9 scale (0 no injury, 9 plant death) ([2]; 35 g ai/ha + 0.5% v/v Merge): 4.19 ± 0.39
- Herbicide injury, mean ± one standard error of the mean, 0 to 9 scale (0 no injury, 9 plant death) ([2]; 70 g ai/ha + 0.5% v/v Merge): 5.43 ± 0.24
- Herbicide injury, mean ± one standard error of the mean, 0 to 9 scale (0 no injury, 9 plant death) ([2]; 210 g ai/ha + 0.5% v/v Merge): 6.65 ± 0.30
- Herbicide injury, mean ± one standard error of the mean, 0 to 9 scale (0 no injury, 9 plant death) ([3]; 35 g ai/ha + 0.5% v/v Merge): 0.76 ± 0.33
- Herbicide injury, mean ± one standard error of the mean, 0 to 9 scale (0 no injury, 9 plant death) ([3]; 70 g ai/ha + 0.5% v/v Merge): 2.53 ± 0.24
- Herbicide injury, mean ± one standard error of the mean, 0 to 9 scale (0 no injury, 9 plant death) ([3]; 210 g ai/ha + 0.5% v/v Merge): 3.22 ± 0.33
- Herbicide injury, mean ± one standard error of the mean, 0 to 9 scale (0 no injury, 9 plant death) ([4]; 35 g ai/ha + 0.5% v/v Merge): 4.08 ± 0.15
- Herbicide injury, mean ± one standard error of the mean, 0 to 9 scale (0 no injury, 9 plant death) ([4]; 70 g ai/ha + 0.5% v/v Merge): 8.58 ± 0.15
- Herbicide injury, mean ± one standard error of the mean, 0 to 9 scale (0 no injury, 9 plant death) ([4]; 210 g ai/ha + 0.5% v/v Merge): 8.00 ± 0.23
- Herbicide injury, mean ± one standard error of the mean, 0 to 9 scale (0 no injury, 9 plant death) ([5]; 35 g ai/ha + 0.5% v/v Merge): 7.22 ± 0.18
- Herbicide injury, mean ± one standard error of the mean, 0 to 9 scale (0 no injury, 9 plant death) ([5]; 70 g ai/ha + 0.5% v/v Merge): 8.61 ± 0.12
- Herbicide injury, mean ± one standard error of the mean, 0 to 9 scale (0 no injury, 9 plant death) ([5]; 210 g ai/ha + 0.5% v/v Merge): 9.00 ± 0.00
- Herbicide injury, mean ± one standard error of the mean, 0 to 9 scale (0 no injury, 9 plant death) ([6]; 35 g ai/ha + 0.5% v/v Merge): 1.21 ± 0.33
- Herbicide injury, mean ± one standard error of the mean, 0 to 9 scale (0 no injury, 9 plant death) ([6]; 70 g ai/ha + 0.5% v/v Merge): 4.13 ± 0.36
- Herbicide injury, mean ± one standard error of the mean, 0 to 9 scale (0 no injury, 9 plant death) ([6]; 210 g ai/ha + 0.5% v/v Merge): 4.93 ± 0.53
- Herbicide injury, mean ± one standard error of the mean, 0 to 9 scale (0 no injury, 9 plant death) ([7]; 35 g ai/ha + 0.5% v/v Merge): 1.81 ± 0.25
- Herbicide injury, mean ± one standard error of the mean, 0 to 9 scale (0 no injury, 9 plant death) ([7]; 70 g ai/ha + 0.5% v/v Merge): 4.14 ± 0.23
- Herbicide injury, mean ± one standard error of the mean, 0 to 9 scale (0 no injury, 9 plant death) ([7]; 210 g ai/ha + 0.5% v/v Merge): 6.17 ± 0.22
- Mean Percent Crop Phytotoxicity (% Crop Injury) ([8]; 35 g ai/ha + 0.25% (v/v) NIS): 66.67%
- Mean Percent Herbicide Tolerance (100% minus percent crop injury) ([8]; 35 g ai/ha): 33.3%
- Mean Percent Crop Phytotoxicity (% Crop Injury) ([8]; 70 g ai/ha + 0.25% (v/v) NIS): 86.67%
- Mean Percent Herbicide Tolerance (100% minus percent crop injury) ([8]; 70 g ai/ha): 13.3%
- Mean Percent Crop Phytotoxicity (% Crop Injury) ([8]; 140 g ai/ha + 0.25% (v/v) NIS): 91.67%
- Mean Percent Herbicide Tolerance (100% minus percent crop injury) ([8]; 140 g ai/ha): 8.3%
- Mean Percent Crop Phytotoxicity (% Crop Injury) ([8]; 210 g ai/ha + 0.25% (v/v) NIS): 91.67%
- Mean Percent Herbicide Tolerance (100% minus percent crop injury) ([8]; 210 g ai/ha): 8.3%
- Mean Percent Crop Phytotoxicity (% Crop Injury), Mean over rates ([8]; mean over 0, 35, 70, 140, 210 g ai/ha (N 15)): 67.33%
